In patent US20070232563A1, “Method for Enhancing Biological Activity and/or Expanding Suitable Region for Biological Activity of Living Body Contacting with Aqueous Environment” (Kabushiki Kaisha Hayashibara Seibutsu Kagaku Kenky, priority 2004, published 2007):

Legend:
unpolished rice = assay: Germination of unpolished rice in aqueous mineral solution; assay type: in vivo
Procedure: Suitable mineral range of aqueous mineral solutions containing saccharides was examined by using unpolished rice as an agricultural product. In detail, a commercialized purified salt as a mineral was dissolved in tap water to give a final concentration of 0.5, 1.0, 1.5, or 2.0 as described in the following Table 6. α,α-Trehalose or α-maltosyl α,α-trehalose was dissolved in the resulting solutions to give a final concentration of 1 w/v %, on a dry solid basis. Absorbent cotton was allowed to absorb the resulting solution in an appropriate amount and placed in a plastic laboratory dish with a cover. Commercialized unpolished rice grains were placed on the cotton in the dish by 20 grains per group and kept at ambient temperature (25° C.) under a light-shaded condition by covering with a black cloth. As controls, an aqueous mineral solution without saccharides, and water without saccharides and minerals were prepared. […] Effective concentration of α,α-trehalose or α-maltosyl α,α-trehalose on expanding suitable region for biological activity of unpolished rice grains were determined by examining the number of germinated unpolished rice grains and germination time as an index in accordance with the method in Experiment 6 in the aqueous mineral solution with mineral concentration of 1.5 w/v %, where α,α-trehalose or α-maltosyl α,α-trehalose was effective in Experiment 6, containing α,α-trehalose or α-maltosyl α,α-trehalose in a concentration of 0.01, 0.1, 1, 2, 3, 4 or 6 w/v %, on a dry solid basis. As a control, water without saccharides or minerals was used.

[1] = tested on: short-necked clam (Ruditapes philippinarum); assay: Biological activity of short-necked clam (aqueduct extension score) in aqueous mineral solutions; assay type: in vivo; conditions: for Judgment score of biological activity: Experiment 2; for Judgment score for biological activity: total of 18 clams, 16 h
Procedure: Suitable region for biological activity of short-necked clam (Ruditapes philippinarum), as a fish or shellfish living in seawater, was examined by adding various saccharides to mineral aqueous solutions with various concentrations. In detail, solar salt (85% by weight of sodium chloride and 15% by weight of magnesium) as minerals was dissolved in running water kept in a container for two days to give final concentrations described in the following Table 1. Saccharide (any one of D-glucose, maltose, sucrose, maltitol, α,α-trehalose, α-maltosyl α,α-trehalose, maltotetraose and cyclic tetrasaccharide) was dissolved in the resulting salt solutions to give a final concentration of 1 w/v %, on a dry solid basis. Each of the resulting solutions was placed in a plastic bat. Eighteen pre-selected active short-necked clam in one group were placed in the bat. The bat was shaded with a black cloth and left at ambient temperature (18° C.) for 16 hours. As a control, an aqueous solar salt solution without any saccharides was prepared. Saccharides except for α-maltosyl α,α-trehalose as a saccharide derivatives thereof and cyclic tetrasaccharide were chosen from commercialized products. α-Maltosyl α,α-trehalose as saccharide derivatives of α,α-trehalose in a powder form with a purity of 98 w/w % or over was prepared by the method disclosed in Experiment 4 in Japanese Patent Kokai No. 143876/1995. Cyclic tetrasaccharide in a crystalline form with a purity of 98 w/w % or over, on a dry solid basis, was prepared by the method disclosed in Example A-7 in International Patent Publication No. WO02/10361. Influence of various saccharides was judged by observing the degree of extending aqueduct of the shellfish; 3 points: its aqueduct is well extended; 2 points: its aqueduct is slightly extended; 1 point: its aqueduct is not extended but its shells are opened; 0 point: its shells are closed. The effect on biological activity was judged by the total point of 18 shellfishes. To investigate the effective concentration range of α,α-trehalose or α-maltosyl α,α-trehalose against a mineral solution with a concentration of 1.5 w/v % or 4.5 w/v %, where α,α-trehalose or α-maltosyl α,α-trehalose was remarkably effective in Experiment 1, the following experiment using α,α-trehalose or α-maltosyl α,α-trehalose at a concentration of 0.01, 0.1, 1, 2, 3 or 4 w/v % was carried out according to the method in Experiment 1. As a control, mineral aqueous solutions with a concentration of 1.5 w/v % or 4.5 w/v % without any of the saccharides were prepared and carried out in the same manner.

[2] = mineral 1.5 w/v %, saccharide 1 w/v %
[3] = mineral 4.5 w/v %, saccharide 1 w/v %

OC[C@H]1O[C@H](O[C@H]2O[C@H](CO)[C@@H](O)[C@H](O)[C@H]2O)[C@H](O)[C@@H](O)[C@@H]1O [α,α-Trehalose, α,α-trehalose]
Germinated grains (Number) (unpolished rice; Experiment 7, mineral 1.5 w/v %, saccharide 0.01 w/v %, 48 hours): 0
Germinated grains (Number) (unpolished rice; Experiment 7, mineral 1.5 w/v %, saccharide 0.01 w/v %, 72 hours): 1
Germinated grains (Number) (unpolished rice; Experiment 7, mineral 1.5 w/v %, saccharide 0.01 w/v %, 96 hours): 2
Germinated grains (Number) (unpolished rice; Experiment 7, mineral 1.5 w/v %, saccharide 0.01 w/v %, 120 hours): 3
Germinated grains (Number) (unpolished rice; Experiment 7, mineral 1.5 w/v %, saccharide 0.1 w/v %, 48 hours): 0
Germinated grains (Number) (unpolished rice; Experiment 7, mineral 1.5 w/v %, saccharide 0.1 w/v %, 72 hours): 2
Germinated grains (Number) (unpolished rice; Experiment 7, mineral 1.5 w/v %, saccharide 0.1 w/v %, 96 hours): 5
Germinated grains (Number) (unpolished rice; Experiment 7, mineral 1.5 w/v %, saccharide 0.1 w/v %, 120 hours): 6
Germinated grains (Number) (unpolished rice; Experiment 7, mineral 1.5 w/v %, saccharide 1 w/v %, 48 hours): 1
Germinated grains (Number) (unpolished rice; Experiment 7, mineral 1.5 w/v %, saccharide 1 w/v %, 72 hours): 4
Germinated grains (Number) (unpolished rice; Experiment 7, mineral 1.5 w/v %, saccharide 1 w/v %, 96 hours): 6
Germinated grains (Number) (unpolished rice; Experiment 7, mineral 1.5 w/v %, saccharide 1 w/v %, 120 hours): 6
Germinated grains (Number) (unpolished rice; Experiment 7, mineral 1.5 w/v %, saccharide 2 w/v %, 48 hours): 3
Germinated grains (Number) (unpolished rice; Experiment 7, mineral 1.5 w/v %, saccharide 2 w/v %, 72 hours): 6
Germinated grains (Number) (unpolished rice; Experiment 7, mineral 1.5 w/v %, saccharide 2 w/v %, 96 hours): 7
Germinated grains (Number) (unpolished rice; Experiment 7, mineral 1.5 w/v %, saccharide 2 w/v %, 120 hours): 7
Germinated grains (Number) (unpolished rice; Experiment 7, mineral 1.5 w/v %, saccharide 3 w/v %, 48 hours): 3
Germinated grains (Number) (unpolished rice; Experiment 7, mineral 1.5 w/v %, saccharide 3 w/v %, 72 hours): 6
Germinated grains (Number) (unpolished rice; Experiment 7, mineral 1.5 w/v %, saccharide 3 w/v %, 96 hours): 6
Germinated grains (Number) (unpolished rice; Experiment 7, mineral 1.5 w/v %, saccharide 3 w/v %, 120 hours): 6
Germinated grains (Number) (unpolished rice; Experiment 7, mineral 1.5 w/v %, saccharide 4 w/v %, 48 hours): 1
Germinated grains (Number) (unpolished rice; Experiment 7, mineral 1.5 w/v %, saccharide 4 w/v %, 72 hours): 6
Germinated grains (Number) (unpolished rice; Experiment 7, mineral 1.5 w/v %, saccharide 4 w/v %, 96 hours): 6
Germinated grains (Number) (unpolished rice; Experiment 7, mineral 1.5 w/v %, saccharide 4 w/v %, 120 hours): 6
Germinated grains (Number) (unpolished rice; Experiment 7, mineral 1.5 w/v %, saccharide 6 w/v %, 48 hours): 0
Germinated grains (Number) (unpolished rice; Experiment 7, mineral 1.5 w/v %, saccharide 6 w/v %, 72 hours): 2
Germinated grains (Number) (unpolished rice; Experiment 7, mineral 1.5 w/v %, saccharide 6 w/v %, 96 hours): 2
Germinated grains (Number) (unpolished rice; Experiment 7, mineral 1.5 w/v %, saccharide 6 w/v %, 120 hours): 2
Germinated grains (Number) (unpolished rice; mineral 0.5 w/v %, saccharide 1 w/v %, 24 hours, 20 grains): 0
Germinated grains (Number) (unpolished rice; mineral 0.5 w/v %, saccharide 1 w/v %, 48 hours, 20 grains): 20
Germinated grains (Number) (unpolished rice; mineral 0.5 w/v %, saccharide 1 w/v %, 72 hours, 20 grains): 20
Germinated grains (Number) (unpolished rice; mineral 0.5 w/v %, saccharide 1 w/v %, 96 hours, 20 grains): 20
Germinated grains (Number) (unpolished rice; mineral 0.5 w/v %, saccharide 1 w/v %, 120 hours, 20 grains): 20
Germinated grains (Number) (unpolished rice; mineral 1.0 w/v %, saccharide 1 w/v %, 24 hours, 20 grains): 0
Germinated grains (Number) (unpolished rice; mineral 1.0 w/v %, saccharide 1 w/v %, 48 hours, 20 grains): 17
Germinated grains (Number) (unpolished rice; mineral 1.0 w/v %, saccharide 1 w/v %, 72 hours, 20 grains): 20
Germinated grains (Number) (unpolished rice; mineral 1.0 w/v %, saccharide 1 w/v %, 96 hours, 20 grains): 20
Germinated grains (Number) (unpolished rice; mineral 1.0 w/v %, saccharide 1 w/v %, 120 hours, 20 grains): 20
Germinated grains (Number) (unpolished rice; mineral 1.5 w/v %, saccharide 1 w/v %, 24 hours, 20 grains): 0
Germinated grains (Number) (unpolished rice; mineral 1.5 w/v %, saccharide 1 w/v %, 48 hours, 20 grains): 1
Germinated grains (Number) (unpolished rice; mineral 1.5 w/v %, saccharide 1 w/v %, 72 hours, 20 grains): 4
Germinated grains (Number) (unpolished rice; mineral 1.5 w/v %, saccharide 1 w/v %, 96 hours, 20 grains): 6
Germinated grains (Number) (unpolished rice; mineral 1.5 w/v %, saccharide 1 w/v %, 120 hours, 20 grains): 6
Germinated grains (Number) (unpolished rice; mineral 2.0 w/v %, saccharide 1 w/v %, 24 hours, 20 grains): 0
Germinated grains (Number) (unpolished rice; mineral 2.0 w/v %, saccharide 1 w/v %, 48 hours, 20 grains): 0
Germinated grains (Number) (unpolished rice; mineral 2.0 w/v %, saccharide 1 w/v %, 72 hours, 20 grains): 0
Germinated grains (Number) (unpolished rice; mineral 2.0 w/v %, saccharide 1 w/v %, 96 hours, 20 grains): 0
Germinated grains (Number) (unpolished rice; mineral 2.0 w/v %, saccharide 1 w/v %, 120 hours, 20 grains): 0
Judgment score of biological activity ([1]; mineral 1.5 w/v %, saccharide 0.01 w/v %): 19
Judgment score of biological activity ([1]; mineral 1.5 w/v %, saccharide 0.1 w/v %): 38
Judgment score of biological activity [1, 2]: 44
Judgment score of biological activity ([1]; mineral 1.5 w/v %, saccharide 2 w/v %): 47
Judgment score of biological activity ([1]; mineral 1.5 w/v %, saccharide 3 w/v %): 38
Judgment score of biological activity ([1]; mineral 1.5 w/v %, saccharide 4 w/v %): 21
Judgment score of biological activity ([1]; mineral 4.5 w/v %, saccharide 0.01 w/v %): 21
Judgment score of biological activity ([1]; mineral 4.5 w/v %, saccharide 0.1 w/v %): 35
Judgment score of biological activity [1, 3]: 50
Judgment score of biological activity ([1]; mineral 4.5 w/v %, saccharide 2 w/v %): 51
Judgment score of biological activity ([1]; mineral 4.5 w/v %, saccharide 3 w/v %): 31
Judgment score of biological activity ([1]; mineral 4.5 w/v %, saccharide 4 w/v %): 18
Judgment score for biological activity ([1]; mineral 0 w/v %, saccharide 1 w/v %): 12
Judgment score for biological activity ([1]; mineral 0.5 w/v %, saccharide 1 w/v %): 16
Judgment score for biological activity ([1]; mineral 1.0 w/v %, saccharide 1 w/v %): 38
Judgment score for biological activity [1, 2]: 44
Judgment score for biological activity ([1]; mineral 2.0 w/v %, saccharide 1 w/v %): 47
Judgment score for biological activity ([1]; mineral 2.5 w/v %, saccharide 1 w/v %): 51
Judgment score for biological activity ([1]; mineral 3.0 w/v %, saccharide 1 w/v %): 54
Judgment score for biological activity ([1]; mineral 3.5 w/v %, saccharide 1 w/v %): 50
Judgment score for biological activity ([1]; mineral 4.0 w/v %, saccharide 1 w/v %): 50
Judgment score for biological activity [1, 3]: 49
Judgment score for biological activity ([1]; mineral 5.0 w/v %, saccharide 1 w/v %): 34
Judgment score for biological activity ([1]; mineral 5.5 w/v %, saccharide 1 w/v %): 10
Judgment score for biological activity ([1]; mineral 6.0 w/v %, saccharide 1 w/v %): 5
